Experimental data as given in PMC12005787, “Synthetic Lethality of SHP2 and XIAP Suppresses Proliferation and Metastasis in KRAS‐mutant Nonsmall Cell Lung Cancer” (Advanced Science, 2025).

Key:
[1] = test system: NCI‐H2122 and A549 cells; test: Intracellular ATP assay; format: cell-based, human; settings: monolayer 24 h and 3D culture 48 h
Method: (§1) supplies are listed in Supplementary Table S5. […]
(§2) For the adherent cell viability assay, cells in the logarithmic growth phase were seeded in 96-well culture plates at a density of 5×103 well-1 and incubated overnight. Diluted compounds or DMSO were added, or specific treatments were incubated at 37 °C and 5% CO2 for 24 h or 48 h. Cell viability was determined using CCK-8 or CellLightTM Cell Viability Assay Kit, according to the manufacturer's protocol. The luminescence signals of the treated samples were normalized to those of the DMSO group.
(§3) For spherical cell viability assays, cells in the logarithmic growth phase were inoculated ata density of 4×10^3 well-1 into 96-well spherical cell microplates and incubated at 37 °C, 5% CO2 for 24 h or 48 h. Cell viability was measured using the CellTiter-Glo® Luminescent Cell Viability 3D Cell Viability Assay Kit, according to the manufacturer’s protocol. The remaining steps were the same as those described above. […]

[2] = test system: cancer cell lines that contain different RAS mutations; test: Average sensitivity of cancer cell line panel by RAS mutation status; format: cell-based
Method: Inhibitory effects of embelin on KRAS-mutant and wild-type cells are listed in Supplementary Table S7.
as §2, with “group. […]” for “group.”

[3] = test system: SHP2 and ERK phosphorylation in KRAS, HRAS and NRAS‐mutant cells; test: SHP2 and ERK phosphorylation in RAS-mutant cells (western blotting); format: cell-based; settings: KRAS G12C, G12S, G13D
Method: Transwell, and the subsequent experiments were performed as described in Cell migration […]
After given treatment, cells were lysed by ice bath with radio-immunoprecipitation assay (RIPA) buffer containing 1% phenylmethylsulphonyl fluoride (PMSF), and the supernatant was collected by centrifugation, and the protein concentration was subsequently determined using a BCA Protein Assay Kit. Depending on the molecular weight of the proteins, different concentrations of sodium dodecyl-sulfate polyacrylamide gel electrophoresis (SDS-PAGE) separator gels were prepared for protein electrophoresis. Equal amounts of proteins were sampled and subjected to SDS-PAGE gel electrophoresis; at the end of electrophoresis, the proteins were transferred to nitrocellulose (NC) membranes. The NC membrane was blocked with 5% skim milk and covered with a specific primary antibody overnight at 4 °C, in which the primary antibody was diluted at a ratio of 1:500–1:5000. The NC membrane was […]

[4] = biological target: T1, His‐ΔSHP2 (Homo sapiens, UniProt Q06124); test: Isothermal titration calorimetry; format: binding; settings: read-out: KD value (ITC)
T1 construct: His‐ΔSHP2, encompassing the peptide from amino acids 205–593 retaining PTP activity; His; made in house; host or cells: E. coli
T1 sequence (Q06124 205-593): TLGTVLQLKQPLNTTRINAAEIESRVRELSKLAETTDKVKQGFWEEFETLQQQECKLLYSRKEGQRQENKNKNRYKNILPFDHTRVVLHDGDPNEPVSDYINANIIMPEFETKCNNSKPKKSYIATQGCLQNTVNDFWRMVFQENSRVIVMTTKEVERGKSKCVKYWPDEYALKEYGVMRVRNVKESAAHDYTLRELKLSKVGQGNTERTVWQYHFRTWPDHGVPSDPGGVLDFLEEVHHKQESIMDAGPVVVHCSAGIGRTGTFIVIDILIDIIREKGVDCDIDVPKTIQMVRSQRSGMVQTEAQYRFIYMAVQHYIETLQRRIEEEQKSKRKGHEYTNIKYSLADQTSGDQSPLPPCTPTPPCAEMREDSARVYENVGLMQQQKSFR
Method: The purified His‐ΔSHP2, His‐SHP2, or His‐ΔSHP2^K325A proteins were dialyzed overnight in dialysis buffer (20 mM HEPES, 0.15 M NaCl, 1 mM TCEP, 10% glycerol, pH 7.5). The protein concentration was determined using the BCA Protein Assay Kit, and the purity of the proteins was detected by Coomassie Brilliant Blue staining. ITC experiments were performed when the protein concentration was higher than 2 mg mL^−1 and the purity was greater than 90%. The instrument (Malvern Instruments, USA) was considered to be functioning optimally for compound and protein titration experiments when the DP value was < 0.05 µcal s^−1 by the water droplet experiment. After the sample cell was cleaned twice with protein dialysis buffer, a protein sample (300 µL) was loaded to the sample cell, an equal amount of ultrapure water was added to the reference cell, and the compound solution dissolved with the same dialysis buffer was put into the corresponding cell, in which the protein‐compound molar ratio was 1:10–1:20. The parameters were adjusted based on the curve‐fitting results to determine the optimal binding concentration gradient. Based on the exothermic changes in the reaction, the entropy increase and enthalpy change were analyzed using software fitting to obtain parameters such as the binding coefficient and affinity constant between the small molecules and proteins.

[5] = test system: A549 and NCI‐H2122 cells; test: Cell proliferation in monolayer culture (CCK-8); format: cell-based, human
Method: as §2, with “group. […]” for “group.”
Figure S7. Targeting SHP2 and XIAP produces a synthetic lethal effect. (A) Effects of NSC-87877 on cell viability of A549 and NCI-H2122 cells after 24 and 48 h were determined using the CCK-8. Bars, ± SEM. The curves were plotted using a variable slope (four-parameter) non-linear fit. (B, E, F, and I) Effects of Na3VO4 (B), birinapant (E), BV-6 (F), and LCL161 (I) on cell viability of human NCI-H2122 cells at 48 h were determined using the CCK-8. *p < 0.05, **p < 0.01 and ***p < 0.001 compared to control group (unpaired two-tailed Student’s t-test).(C, G) Effects of SHP099 (C) and GDC-0152 (G) on cell viability after 24 and 48 h were determined using the CCK-8. Bars, ± SEM. The curves were plotted using a variable slope (four-parameter) non-linear fit.(D, H) Effects of SHP099 (D) and GDC-0152 (H) on cell viability were determined after 48 h using intracellular ATP chemiluminescence. **p < 0.01 and ***p < 0.001 compared to control group (unpaired two-tailed Student’s t-test).(J) Effects of SHP099 and GDC-0152 separately and in combination, and the effect of embelin for 24 h on the cell viability were assessed using intracellular ATP […]
tailed Student’s t-test).(K) Effects of SHP099 and GDC-0152 separately and in combination with […] on the cell viability of human KRAS-WT and -mutant cells were assessed using a colony formation assay. (L, M) A549 and NCI-H2122 cells were instantaneously transfected with siPTPN11 and siXIAP separately and together for 24 h under

[6] = test system: KRAS‐mutant NSCLC cells in 3D culture; test: Cell proliferation in 3D cell culture (ATP chemiluminescence); format: cell-based
Method: as §1, §2, §3
Figure S7. Targeting SHP2 and XIAP produces a synthetic lethal effect. (A) Effects of NSC-87877 on cell viability of A549 and NCI-H2122 cells after 24 and 48 h were determined using the CCK-8. Bars, ± SEM. […]
tailed Student’s t-test).(K) Effects of SHP099 and GDC-0152 separately and in combination with […] on the cell viability of human KRAS-WT and -mutant cells were assessed using a colony formation assay. […]

Compound	effect on intracellular ATP [1]	IC50 ([2]; HRAS mutants) [µM]	IC50 ([2]; NRAS mutant strain) [µM]	IC50 ([2]; RAS wild‐type cell lines) [µM]	IC50 ([2]; cell lines with KRAS mutations) [µM]	effect on SHP2 phosphorylation [3]	effect on downstream ERK phosphorylation [3]	Kd [4] [µM]	effect on cell proliferation in monolayer cell culture mode [5]	effect on cell proliferation in 3D cell culture [6]
CCCCCCCCCCCC1=C(O)C(=O)C=C(O)C1=O [Embelin]	significantly inhibited ATP release	44	19.6	30.8	16.9	inhibited SHP2 phosphorylation	significantly reduced	0.22		
CC1(N)CCN(c2cnc(-c3cccc(Cl)c3Cl)c(N)n2)CC1 [SHP099]									almost no effect	partially inhibited cell proliferation
